# Where two headings read alike, the source gives them in different places.
# Key:
# [1] = tested on: Collagen Induced Arthritis (CIA); assay: Mouse collagen induced arthritis (CIA) model; assay type: in vivo; conditions: mouse CIA, 3, 10 and 30 mg/kg b.i.d., versus disease vehicle group
# Description: 5.1. CIA Model 5.1.1. Materials Completed Freund's adjuvant (CFA) and incomplete Freund's adjuvant (IFA) were purchased from Difco. Bovine collagen type II (CII), lipopolysaccharide (LPS), and Enbrel was obtained from Chondrex (Isle d'Abeau, France); Sigma (P4252, L'Isle d'Abeau, France), […] (25 mg injectable syringe, France) Acros Organics (Palo Alto, Calif.), respectively. All other reagents used were of reagent grade and all solvents were of analytical grade. 5.1.2. Animals DBA1/J mice (male, 7-8 weeks old) were obtained from Charles River Laboratories (France). Mice were kept on a 12 h light/dark cycle (07 h00-19 h00). Temperature was maintained at 22° C., and food and water were provided ad libitum. 5.1.3. Collagen Induced Arthritis (CIA) One day before the experiment, CII solution (2 mg/mL) was prepared with 0.05 M acetic acid and stored at 4° C. Just before the immunization, equal volumes of adjuvant (IFA) and CII were mixed by a homogenizer in a pre-cooled glass bottle in an ice water bath. Extra adjuvant and prolonged homogenization may be required if an emulsion was not formed. […] Body weight and clinical score, were recorded twice a week. […] Clinical Assessment of Arthritis Arthritis is scored according to the method of (Khachigian 2006; Lin et al. 2007; Nishida et al. 2004). […] Results For each readout, mean and sem were calculated. […]
# [2] = tested on: THP-1-Lucia NFκB cells; assay: NFκB-reporter assay in THP1-Lucia NFκB cells (LPS, IL-1β, TNFα trigger); assay type: cell-based; conditions: 24 h
# Excerpt: This assay was used to evaluate the IRAK4 selectivity and potency of the compounds of the invention upon IRAK4 dependent (LPS and IL-1β) and independent triggering (TNFα), in a THP1-Lucia NFκB reporter assay.
# THP-1-Lucia NFκB cells (Invivogen—5, rue Jean Rodier 31400 Toulouse France—cat #thp1-nfkb) were cultivated as recommended by the supplier using split cycles each cycle comprising a succession of thawing/expansion/seeding. The data reported were generated using cells having between 3 to 9 cycles. On the day of the experiment THP-1-Lucia NFκB cells were counted and seeded at a density of 1,000,000 cells/mL in culture medium (RPMI 1640 (Gibco, Cat #52400-025)+10% FBS (Sigma, Cat #F7524-500ML)+1% P/S (Gibco, Cat #15140-122)) by pipetting 54 μL/well in a 384 well plate. Thereafter, 6 μL of a 10× trigger solution was added to all wells, at final concentrations of 2.5, 10 and 3 ng/mL for respectively LPS, TNFα and IL-1β, except for ‘no trigger wells’ where 6 μL culture medium only was added.
# After trigger addition, compounds were added with a digital compound dispenser, in an 8-points concentration range, using 3-fold dilution steps and normalizing the final DMSO concentration to 0.2% DMSO in all wells.
# After 24 h incubation at 37° C., 5% CO2, 40 μL of supernatant was collected per well and transferred to a new 384 well plate that was then stored at −20° C. until further use.
# For the readout, supernatant samples were thawed on ice and 5 μL sample was transferred from each well to a new 384-well plate. 20 μL of Quanti-Luc solution (Quanti-Luc powder (Invivogen, Cat #rep-glc1) dissolved in 25 mL sterile water as indicated by the manufacturer) was added to each well after which luminescence was immediately measured on an Envision instrument.
# To measure the inhibition of LPS/TNFα/IL-1β-induced NFκB-reporter activity, percentage inhibition (PIN) values were calculated for all concentrations tested, compared to controls. […]
Compound,effect on bone erosion Larsen Score [1],"EC50 ([2]; IL-1β 3 ng/mL, read-out: IL-1β driven NFκB-reporter activity, average pEC50 (converted))","EC50 ([2]; LPS 2.5 ng/mL, read-out: LPS driven NFκB-reporter activity, average pEC50 (converted))",TNFα mediated NFκB-reporter activity ([2]; TNFα 10 ng/mL)
"CNC(=O)c1cc2nc(CCC(C)(C)O)cn2cc1NC(=O)c1cccc(C(F)(F)F)n1 [Compound 2, 2-(3-hydroxy-3-methyl-butyl)-N-methyl-6-[[6-(trifluoromethyl)pyridine-2-carbonyl]amino]imidazo[1,2-a]pyridine-7-carboxamide]",statistically significant effect,–,–,–
"CCOc1c(NC(=O)c2cccn(C3CC3)c2=O)cn2cc(CCS(C)(=O)=O)nc2c1F [Compound 39, 1-cyclopropyl-N-[7-ethoxy-8-fluoro-2-(2-methylsulfonylethyl)imidazo[1,2-a]pyridin-6-yl]-2-oxo-pyridine-3-carboxamide]",–,63.1 nM,316 nM,no activity was observed
